Experiment [1] deals with T1, human cannabinoid CB1 receptor (Homo sapiens, UniProt P21554).
T1 construct: purchased Perkin Elmer Inc., Singapore Pte; Ltd. RBHCB1M400UA; host or cells: HEK293-EBNA cell membranes (overexpressing)
The experiment can be described thus: biochemical. Type of experiment: binding. The settings on record: for Ki: Cheng–Prusoff from IC50, [3H]CP-55940 0.5 nM, read-out: CB1 Ki; for Ki / IC50: mean ± SEM n = 3; for IC50: [3H]CP-55940 0.5 nM, hCB1 HEK293-EBNA membranes, read-out: CB1 IC50; for inhibition at 10 µM: displacement of [3H]CP-55940 at 10 μM compound, read-out: CB1 Max Tested µM (% Displacement). (Loss of bound radioactivity is the signal in a displacement assay; it reports binding, not function.)

Experiment [2] deals with T2, human recombinant cannabinoid CB2 receptor (Homo sapiens, UniProt P34972).
T2 construct: purchased Perkin Elmer Inc., Singapore Pte; Ltd. RBXCB2M400UA; host or cells: HEK293-EBNA cell membranes (overexpressing)
The experiment is described as follows: CB2 radioligand displacement binding assay ([3H]CP-55940). The settings on record: for inhibition at 10 µM: displacement of [3H]CP-55940 at 10 μM compound, read-out: CB2 Max Tested µM (% Displacement); for Ki: Cheng–Prusoff from IC50, [3H]CP-55940 0.5 nM; for Ki / IC50: mean ± SEM n = 3; for IC50: [3H]CP-55940 0.5 nM, hCB2 HEK293-EBNA membranes.

In paper PMC12564498, “Benzo[d]imidazole–Naphthalen-Arylmethanone Regioisomers as CB1 Ligands: Evaluation of Agonism via an Indirect Cytotoxicity-Based Approach” (International Journal of Molecular Sciences, 2025) one finds Ki, IC50 and inhibition data, which are given here for eleven compounds.

A value given as a limit tells only on which side of the number the result lay.

T1 sequence (P21554 whole entry): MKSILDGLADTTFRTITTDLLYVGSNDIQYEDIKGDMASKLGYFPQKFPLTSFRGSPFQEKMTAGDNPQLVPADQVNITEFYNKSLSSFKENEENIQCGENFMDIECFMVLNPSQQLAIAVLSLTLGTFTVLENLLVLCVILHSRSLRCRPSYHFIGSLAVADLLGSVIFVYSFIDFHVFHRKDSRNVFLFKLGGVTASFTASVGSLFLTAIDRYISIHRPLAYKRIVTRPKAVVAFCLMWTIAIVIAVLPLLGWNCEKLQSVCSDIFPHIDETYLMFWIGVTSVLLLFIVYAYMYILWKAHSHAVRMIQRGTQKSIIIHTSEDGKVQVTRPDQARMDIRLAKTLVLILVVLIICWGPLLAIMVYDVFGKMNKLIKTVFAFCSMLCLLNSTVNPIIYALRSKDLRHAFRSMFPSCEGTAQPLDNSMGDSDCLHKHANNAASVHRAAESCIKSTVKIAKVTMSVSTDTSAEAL
T2 sequence (P34972 whole entry): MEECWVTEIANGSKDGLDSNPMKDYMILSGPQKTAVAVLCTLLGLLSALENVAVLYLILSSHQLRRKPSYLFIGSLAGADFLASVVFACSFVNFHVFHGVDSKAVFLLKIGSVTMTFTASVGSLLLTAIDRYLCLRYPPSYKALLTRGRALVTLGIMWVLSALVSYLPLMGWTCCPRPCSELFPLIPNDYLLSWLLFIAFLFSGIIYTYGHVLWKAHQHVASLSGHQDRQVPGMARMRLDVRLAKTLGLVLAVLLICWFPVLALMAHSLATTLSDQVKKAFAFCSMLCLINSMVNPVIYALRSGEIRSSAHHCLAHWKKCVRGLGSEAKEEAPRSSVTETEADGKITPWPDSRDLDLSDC

For `O=C(c1cccc2ccccc12)n1c(-c2cccnc2)nc2ccc(Cl)cc21` [4a′], in experiment [1], the Ki is over 10 µM, the IC50 was over 10 µM and the inhibition at 10 µM is 20%. For the same compound, the inhibition at 10 µM in experiment [2] amounted to 52%.

In the case of `Cc1ccc(-c2nc3ccc(Cl)cc3n2C(=O)c2cccc3ccccc23)o1` [4e′], in experiment [1], the Ki is over 10 µM, the IC50 was over 10 µM and the inhibition at 10 µM was determined as 38%. Also, in experiment [2], the Ki is over 10 µM, the IC50 is over 10 µM and the inhibition at 10 µM turned out to be 52.8%.

For the compound `Cc1ccc(-c2nc3ccc(F)cc3n2C(=O)c2cccc3ccccc23)o1` [5e′, (6-fluoro-2-(5-methylfuran-2-yl)-1H-benzo[d]imidazol-1-yl)(naphthalen-1-yl)methanone], in experiment [1], the Ki was over 10 µM, the IC50 was over 10 µM and the inhibition at 10 µM was determined as 43%. In experiment [2], the Ki was over 10 µM, the IC50 was over 10 µM and the inhibition at 10 µM turned out to be 52%.

Regarding `O=C(c1cccc2ccccc12)n1c(-c2cccnc2)nc2cc(Cl)ccc21` [Compound 4a], in experiment [1], the Ki is over 10 µM, the IC50 was over 10 µM and the inhibition at 10 µM was 36%. Moreover, in experiment [2], the Ki came out at 6.6 µM and the inhibition at 10 µM stood at 35%.

For `COc1cccc(-c2nc3ccc(F)cc3n2C(=O)c2cccc3ccccc23)c1` [5b′, (6-fluoro-2-(3-methoxyphenyl)-1H-benzo[d]imidazol-1-yl)(naphthalen-1-yl)methanone], in experiment [1], the Ki was over 10 µM, the 50% inhibitory concentration (IC50) was over 10 µM and the inhibition at 10 µM was determined as 47%. Also, in experiment [2], the Ki was over 10 µM, the IC50 was over 10 µM and the inhibition at 10 µM turned out to be 53.5%.

For `Cc1ccc(-c2nc3cc(Cl)ccc3n2C(=O)c2cccc3ccccc23)o1` [Compound 4e], in experiment [1], the Ki is over 10 µM, the IC50 was over 10 µM and the inhibition at 10 µM was determined as 30%. In experiment [2], the Ki was over 10 µM, the IC50 is over 10 µM and the inhibition at 10 µM was found to be 29%.

Take `O=C(c1cccc2ccccc12)n1c(-c2ccon2)nc2cc(F)ccc21` [Compound 5d, (5-fluoro-2-(isoxazol-3-yl)-1H-benzo[d]imidazol-1-yl)(naphthalen-1-yl)methanone]: in experiment [1], the Ki is over 10 µM, the IC50 was over 10 µM and the inhibition at 10 µM stood at 54%. Besides, in experiment [2], the Ki is over 10 µM, the IC50 was over 10 µM and the inhibition at 10 µM was found to be 51%.

`COc1cccc(-c2nc3cc(Cl)ccc3n2C(=O)c2cccc3ccccc23)c1` [Compound 4b]: in experiment [1], the Ki was over 10 µM, the IC50 is over 10 µM and the inhibition at 10 µM was 39%. In experiment [2], the Ki is over 10 µM, the IC50 is over 10 µM and the inhibition at 10 µM worked out at 48%.

As for `Cc1cc(-c2nc3cc(F)ccc3n2C(=O)c2cccc3ccccc23)no1` [Compound 5c, (5-fluoro-2-(5-methylisoxazol-3-yl)-1H-benzo[d]imidazol-1-yl)(naphthalen-1-yl)methanone], in experiment [1], the Ki was over 10 µM, the IC50 was over 10 µM and the inhibition at 10 µM was found to be 54.5%. Also, in experiment [2], the Ki is over 10 µM, the IC50 is over 10 µM and the inhibition at 10 µM came to 24%.

Take `O=C(c1cccc2ccccc12)n1c(-c2ccco2)nc2cc(Cl)ccc21` [Compound 4f]: in experiment [1], the Ki was over 10 µM, the IC50 is over 10 µM and the inhibition at 10 µM was over 50%. Besides, in experiment [2], the inhibitory constant (Ki) was over 10 µM, the 50% inhibitory concentration (IC50) is over 10 µM and the inhibition at 10 µM came to 46.5%.

For the compound `Cc1cc(-c2nc3cc(Cl)ccc3n2C(=O)c2cccc3ccccc23)no1` [Compound 4c], in experiment [1], the Ki is over 10 µM, the IC50 is over 10 µM and the inhibition at 10 µM is 38%. In experiment [2], the Ki is over 10 µM, the IC50 is over 10 µM and the inhibition at 10 µM came out at 30%.

The Ki is a measure of affinity in units of concentration, obtained from inhibition or displacement. Usually IC50 stands for the midpoint of a concentration-inhibition curve.
